Measured values: US20250366475A1, “HERBICIDAL COMBINATIONS AND A METHOD FOR CONTROLLING UNDESIRED VEGETATION” (UPL Mauritius Limited, priority 2022, published 2025)

Test system: Brachiaria decumbens
Experiment: Post-emergence herbicidal activity, efficacy on Brachiaria decumbens (Colby method for expected efficacy)
Assay type: in vivo
Experimental: Methodology: Trials were conducted to evaluate the efficacy of the combinations comprising L-glufosinate ammonium and the additional herbicides on Brachiaria genus weeds.
All treatments were in 4 replications per treatment with a spray volume of about 150 L/ha.
Efficacy Evaluation: The expected efficacy of a combination comprising L-glufosinate ammonium and additional herbicides was calculated using the well-established Colby method.
In the Colby method, the expected (or predicted) response of a combination of herbicides is calculated by taking the product of the observed response for each individual component of the combination when applied alone, divided by 100, and subtracting this value from the sum of the observed response for each component when applied alone. An unexpected enhancement in efficacy of the combination is then determined by comparing the observed response of the combination to the expected (or predicted) response as calculated from the observed response of each individual component alone. […] The Colby method requires only a single dose of each herbicide applied alone and the mixture of both doses. The formula used to calculate the expected efficacy (EE) which was compared with the observed efficacy (OE) to determine the efficacy of the present disclosure is explained hereinbelow:
The expected efficacy for a combination of two active ingredients is as follows:
[formula] • wherein, • A=Observed efficacy of active ingredient A at the same concentration as used in the mixture. • B=Observed efficacy of the active ingredient B at the same concentration as used in the mixture.

Cc1ccc2c(c1)[C@H](Nc1nc(N)nc(C(C)F)n1)[C@@H](C)C2 (some centres unmarked) [Indaziflam]
Observed efficacy (%) (50 g a.i./ha, 7 DAA, Table 8): 50% | Observed efficacy (%) (50 g a.i./ha, 14 DAA, Table 8): 75% | Observed efficacy (%) (50 g a.i./ha, 21 DAA, Table 8): 90%

CS(=O)(=O)c1cc(C(F)(F)F)ccc1C(=O)c1cnoc1C1CC1 [Isoxaflutole]
Observed efficacy (%) (60 g a.i./ha, 7 DAA, Table 9): 45% | Observed efficacy (%) (60 g a.i./ha, 14 DAA, Table 9): 70% | Observed efficacy (%) (60 g a.i./ha, 21 DAA, Table 9): 85% | Observed efficacy (%) (60 g a.i./ha, 28 DAA, Table 9): 75%

CP(=O)(O)CC[C@H](N)C(=O)O.N [L-glufosinate ammonium]
Observed efficacy (%) (150 g a.i./ha, 3 DAA, Table 13): 40% | Observed efficacy (%) (150 g a.i./ha, 3 DAA, Table 16): 40% | Observed efficacy (%) (150 g a.i./ha, 7 DAA, Table 7): 65% | Observed efficacy (%) (150 g a.i./ha, 7 DAA, Table 8): 75% | Observed efficacy (%) (150 g a.i./ha, 7 DAA, Table 9): 70% | Observed efficacy (%) (150 g a.i./ha, 7 DAA, Table 10): 65% | Observed efficacy (%) (150 g a.i./ha, 7 DAA, Table 11): 75% | Observed efficacy (%) (150 g a.i./ha, 7 DAA, Table 12): 65% | Observed efficacy (%) (150 g a.i./ha, 14 DAA, Table 7): 70% | Observed efficacy (%) (150 g a.i./ha, 14 DAA, Table 8): 65% | Observed efficacy (%) (150 g a.i./ha, 14 DAA, Table 9): 65% | Observed efficacy (%) (150 g a.i./ha, 14 DAA, Table 10): 70% | Observed efficacy (%) (150 g a.i./ha, 14 DAA, Table 11): 85% | Observed efficacy (%) (150 g a.i./ha, 14 DAA, Table 12): 70% | Observed efficacy (%) (150 g a.i./ha, 14 DAA, Table 15): 75% | Observed efficacy (%) (150 g a.i./ha, 21 DAA, Table 7): 70% | Observed efficacy (%) (150 g a.i./ha, 21 DAA, Table 8): 60% | Observed efficacy (%) (150 g a.i./ha, 21 DAA, Table 9): 60% | Observed efficacy (%) (150 g a.i./ha, 21 DAA, Table 10): 70% | Observed efficacy (%) (150 g a.i./ha, 21 DAA, Table 11): 85% | Observed efficacy (%) (150 g a.i./ha, 21 DAA, Table 12): 70% | Observed efficacy (%) (150 g a.i./ha, 21 DAA, Table 15): 70% | Observed efficacy (%) (150 g a.i./ha, 28 DAA, Table 7): 60% | Observed efficacy (%) (150 g a.i./ha, 28 DAA, Table 9): 60% | Observed efficacy (%) (150 g a.i./ha, 28 DAA, Table 10): 60% | Observed efficacy (%) (150 g a.i./ha, 28 DAA, Table 11): 85% | Observed efficacy (%) (150 g a.i./ha, 28 DAA, Table 12): 60% | Observed efficacy (%) (150 g a.i./ha, 28 DAA, Table 14): 60% | Observed efficacy (%) (150 g a.i./ha, 28 DAA, Table 15): 60% | Observed efficacy (%) (150 g a.i./ha, 35 DAA, Table 14): 55% | Observed efficacy (%) (150 g a.i./ha, 35 DAA, Table 15): 55%

CCc1cccc(C)c1N(COC(C)C)C(=O)CCl [Propisochlor]
Observed efficacy (%) (540 g a.i./ha, 7 DAA, Table 12): 0% | Observed efficacy (%) (540 g a.i./ha, 14 DAA, Table 12): 0% | Observed efficacy (%) (540 g a.i./ha, 21 DAA, Table 12): 0% | Observed efficacy (%) (540 g a.i./ha, 28 DAA, Table 12): 0%

Cn1nc(C(F)(F)F)c(CS(=O)(=O)C2=NOC(C)(C)C2)c1OC(F)F [Pyroxasulfone]
Observed efficacy (%) (75 g a.i./ha, 7 DAA, Table 10): 0% | Observed efficacy (%) (75 g a.i./ha, 14 DAA, Table 10): 15% | Observed efficacy (%) (75 g a.i./ha, 21 DAA, Table 10): 25% | Observed efficacy (%) (75 g a.i./ha, 28 DAA, Table 10): 20%

CCc1cccc(C)c1N(C(=O)CCl)[C@@H](C)COC [S-metolachlor]
Observed efficacy (%) (960 g a.i./ha, 7 DAA, Table 7): 0% | Observed efficacy (%) (960 g a.i./ha, 14 DAA, Table 7): 0% | Observed efficacy (%) (960 g a.i./ha, 21 DAA, Table 7): 0% | Observed efficacy (%) (960 g a.i./ha, 28 DAA, Table 7): 0%

CS(=O)(=O)c1ccc(C(=O)C2C(=O)CCCC2=O)c([N+](=O)[O-])c1 [mesotrione, Mesotrione]
Observed efficacy (%) (100 g a.i./ha, 3 DAA, Table 16): 10%

CCN(CC)C(=O)C(C)Oc1cccc2ccccc12 (centres unmarked) [napropamide, Napropamide]
Observed efficacy (%) (675 g a.i./ha, 7 DAA, Table 11): 5% | Observed efficacy (%) (675 g a.i./ha, 14 DAA, Table 11): 5% | Observed efficacy (%) (675 g a.i./ha, 21 DAA, Table 11): 5% | Observed efficacy (%) (675 g a.i./ha, 28 DAA, Table 11): 0%

CCOC(=O)C(C)Oc1ccc(Oc2cnc3cc(Cl)ccc3n2)cc1 (centres unmarked) [quizalofop-ethyl, Quizalofop-ethyl]
Observed efficacy (%) (25 g a.i./ha, 28 DAA, Table 14): 35% | Observed efficacy (%) (25 g a.i./ha, 35 DAA, Table 14): 30%

C[C@@H](Oc1ccc(Oc2cnc3cc(Cl)ccc3n2)cc1)C(=O)OCC1CCCO1 (some centres unmarked) [quizalofop-p-tefuryl, Quizalofop-p-tefuryl]
Observed efficacy (%) (25 g a.i./ha, 14 DAA, Table 15): 20% | Observed efficacy (%) (25 g a.i./ha, 21 DAA, Table 15): 10% | Observed efficacy (%) (25 g a.i./ha, 28 DAA, Table 15): 5% | Observed efficacy (%) (25 g a.i./ha, 35 DAA, Table 15): 5%

CS(=O)(=O)c1ccc(C(=O)C2C(=O)CCCC2=O)c(Cl)c1COCC(F)(F)F [tembotrione, Tembotrione]
Observed efficacy (%) (53 g a.i./ha, 3 DAA, Table 13): 8%
